For the data set, the system named is CCRIS mutagenicity, Ames/micronucleus/aberration tests. The experiment in a line: CCRIS mutagenicity studies.
Where [1] appears, read: Test System: AMES SALMONELLA TYPHIMURIUM, Strain/Indicator: TA98, Metabolic Activation: NONE, Method: STANDARD PLATE.
[2] abbreviates: Test System: AMES SALMONELLA TYPHIMURIUM, Strain/Indicator: TA98, Metabolic Activation: RAT, LIVER, S-9, AROCLOR 1254, Method: STANDARD PLATE.
Where [3] appears, read: Test System: AMES SALMONELLA TYPHIMURIUM, Strain/Indicator: TA100, Metabolic Activation: NONE, Method: STANDARD PLATE.
Where [4] appears, read: Test System: AMES SALMONELLA TYPHIMURIUM, Strain/Indicator: TA100, Metabolic Activation: RAT, LIVER, S-9, AROCLOR 1254, Method: STANDARD PLATE.
Setting [5] is: Test System: AMES SALMONELLA TYPHIMURIUM, Strain/Indicator: TA98, Metabolic Activation: HAMSTER, LIVER, S-9, AROCLOR 1254 (10%), Method: PREINCUBATION
Where [6] appears, read: Test System: AMES SALMONELLA TYPHIMURIUM, Strain/Indicator: TA98, Metabolic Activation: NONE, Method: PREINCUBATION
[7] abbreviates: Test System: AMES SALMONELLA TYPHIMURIUM, Strain/Indicator: TA98, Metabolic Activation: RAT, LIVER, S-9, AROCLOR 1254 (10%), Method: PREINCUBATION
[8] abbreviates: Test System: AMES SALMONELLA TYPHIMURIUM, Strain/Indicator: TA100, Metabolic Activation: HAMSTER, LIVER, S-9, AROCLOR 1254 (10%), Method: PREINCUBATION
[9] abbreviates: Test System: AMES SALMONELLA TYPHIMURIUM, Strain/Indicator: TA100, Metabolic Activation: NONE, Method: PREINCUBATION
Setting [10] is: Test System: AMES SALMONELLA TYPHIMURIUM, Strain/Indicator: TA100, Metabolic Activation: RAT, LIVER, S-9, AROCLOR 1254 (10%), Method: PREINCUBATION
Setting [11] is: Test System: AMES SALMONELLA TYPHIMURIUM, Strain/Indicator: TA1535, Metabolic Activation: HAMSTER, LIVER, S-9, AROCLOR 1254 (10%), Method: PREINCUBATION
[12] abbreviates: Test System: AMES SALMONELLA TYPHIMURIUM, Strain/Indicator: TA1535, Metabolic Activation: NONE, Method: PREINCUBATION
[13] abbreviates: Test System: AMES SALMONELLA TYPHIMURIUM, Strain/Indicator: TA1535, Metabolic Activation: RAT, LIVER, S-9, AROCLOR 1254 (10%), Method: PREINCUBATION
The mark [14] stands for this setting: Test System: AMES SALMONELLA TYPHIMURIUM, Strain/Indicator: TA1537, Metabolic Activation: HAMSTER, LIVER, S-9, AROCLOR 1254 (10%), Method: PREINCUBATION
[15] abbreviates: Test System: AMES SALMONELLA TYPHIMURIUM, Strain/Indicator: TA1537, Metabolic Activation: NONE, Method: PREINCUBATION
Setting [16] is: Test System: AMES SALMONELLA TYPHIMURIUM, Strain/Indicator: TA1537, Metabolic Activation: RAT, LIVER, S-9, AROCLOR 1254 (10%), Method: PREINCUBATION

Active and inactive are the calls of the source. No rule for the calls is given here.

The values below come from PubChem BioAssay AID1259407 (Chemical Carcinogenesis Research Information System (CCRIS), 2018).

Regarding `c1ccc2c(c1)-c1c(ccc3ccccc13)C1OC21` (stereo not drawn), the mutagenic call runs as follows: (Test System: AMES SALMONELLA TYPHIMURIUM, Strain/Indicator: TA98, Metabolic Activation: NONE, Method: PREINCUBATION (KCL-CONTAINING MEDIUM)) “active; positive”; (Test System: AMES SALMONELLA TYPHIMURIUM, Strain/Indicator: TA98, Metabolic Activation: NONE, Method: PREINCUBATION (KCL-FREE MEDIUM)) “active; positive”; (Test System: AMES SALMONELLA TYPHIMURIUM, Strain/Indicator: TA100, Metabolic Activation: NONE, Method: PREINCUBATION (KCL-CONTAINING MEDIUM)) “active; positive”; (Test System: AMES SALMONELLA TYPHIMURIUM, Strain/Indicator: TA100, Metabolic Activation: NONE, Method: PREINCUBATION (KCL-FREE MEDIUM)) “active; positive”.

`N#[N+]c1cccc2c1C(=O)c1ccccc1C2=O`: the mutagenic call under setting [1] was “inactive; negative”; the mutagenic call under setting [2] is “active; positive”; the mutagenic call under setting [3] was “inactive; negative”; the mutagenic call under setting [4] was “active; positive”; the mutagenic call (Test System: AMES SALMONELLA TYPHIMURIUM, Strain/Indicator: TA1535, Metabolic Activation: NONE, Method: STANDARD PLATE) was “inactive; negative”; the mutagenic call (Test System: AMES SALMONELLA TYPHIMURIUM, Strain/Indicator: TA1537, Metabolic Activation: NONE, Method: STANDARD PLATE) was “active; positive”. Moreover, where the note is “Test System: AMES SALMONELLA TYPHIMURIUM, Strain/Indicator: TA1537, Metabolic Activation: RAT, LIVER, S-9, AROCLOR 1254, Method: STANDARD PLATE”, the mutagenic call is “active; positive”.

In the case of `c1cc[n+]2c(c1)-c1cccc[n+]1CC2`, the mutagenic call is “inactive; negative” (Test System: AMES SALMONELLA TYPHIMURIUM, Strain/Indicator: TA102, Metabolic Activation: NONE, Method: STANDARD PLATE); “inactive; negative” (Test System: AMES SALMONELLA TYPHIMURIUM, Strain/Indicator: TA2638, Metabolic Activation: NONE, Method: STANDARD PLATE); “inactive; negative” (Test System: E. COLI, Strain/Indicator: WP2 (PKM101), Metabolic Activation: NONE, Method: STANDARD PLATE); “inactive; negative” (Test System: E. COLI, Strain/Indicator: WP2 UVRA (PKM101), Metabolic Activation: NONE, Method: STANDARD PLATE).

Regarding `O=C(/C=C/c1ccccc1)c1ccc(F)cc1`, the mutagenic call under setting [1] is “inactive; negative”, the mutagenic call under setting [2] was “inactive; negative”, the mutagenic call under setting [3] is “inactive; negative” and the mutagenic call under setting [4] is “inactive; negative”.

As to `C=CC(=O)OCC(C)C`, the mutagenic call is, setting by setting: under setting [5], “inactive; negative”; under setting [6], “inactive; negative”; under setting [7], “inactive; negative”; under setting [8], “inactive; negative”; under setting [9], “inactive; negative”; under setting [10], “inactive; negative”. The mutagenic call reads like this: under setting [11], “inactive; negative”; under setting [12], “inactive; negative”; under setting [13], “inactive; negative”; under setting [14], “inactive; negative”; under setting [15], “inactive; negative”; under setting [16], “inactive; negative”.

For the compound `Cc1c(Br)c(Br)c(Br)c(Br)c1Br`, the mutagenic call is, setting by setting: under setting [5], “inactive; negative”; under setting [6], “inactive; negative”; under setting [7], “inactive; negative”; under setting [8], “inactive; negative”; under setting [9], “inactive; negative”; under setting [10], “inactive; negative”. The mutagenic call runs as follows: under setting [11], “inactive; negative”; under setting [12], “inactive; negative”; under setting [13], “inactive; negative”; under setting [14], “inactive; negative”; under setting [15], “inactive; negative”; under setting [16], “inactive; negative”.

As for `COP1(=S)OCc2ccccc2O1` (stereo not drawn), the mutagenic call runs as follows: under setting [3], “active; positive”; (Test System: AMES SALMONELLA TYPHIMURIUM, Strain/Indicator: TA100, Metabolic Activation: S-9 MIX, Method: STANDARD PLATE) “active; positive”.

`NO`: the mutagenic call reads like this: (Test System: AMES SALMONELLA TYPHIMURIUM, Strain/Indicator: TA97, Metabolic Activation: HAMSTER, LIVER, S-9, AROCLOR 1254 (10 OR 30%), Method: PREINCUBATION) “inactive; negative”; (Test System: AMES SALMONELLA TYPHIMURIUM, Strain/Indicator: TA97, Metabolic Activation: NONE, Method: PREINCUBATION) “inactive; negative”; (Test System: AMES SALMONELLA TYPHIMURIUM, Strain/Indicator: TA97, Metabolic Activation: RAT, LIVER, S-9, AROCLOR 1254 (10 OR 30%), Method: PREINCUBATION) “inactive; negative”; under setting [5], “inactive; negative”; (Test System: AMES SALMONELLA TYPHIMURIUM, Strain/Indicator: TA98, Metabolic Activation: HAMSTER, LIVER, S-9, AROCLOR 1254 (30%), Method: PREINCUBATION) “inactive; negative”; under setting [6], “inactive; negative”. Besides, the mutagenic call reads like this: under setting [7], “inactive; negative”; (Test System: AMES SALMONELLA TYPHIMURIUM, Strain/Indicator: TA98, Metabolic Activation: RAT, LIVER, S-9, AROCLOR 1254 (30%), Method: PREINCUBATION) “inactive; negative”; under setting [8], “inactive; negative”; (Test System: AMES SALMONELLA TYPHIMURIUM, Strain/Indicator: TA100, Metabolic Activation: HAMSTER, LIVER, S-9, AROCLOR 1254 (30%), Method: PREINCUBATION) “inactive; negative”; under setting [9], “inactive; negative”; (Test System: AMES SALMONELLA TYPHIMURIUM, Strain/Indicator: TA100, Metabolic Activation: RAT, LIVER, S-9, AROCLOR 1254 (10 OR 30%), Method: PREINCUBATION) “inactive; negative”. Moreover, the mutagenic call reads like this: (Test System: AMES SALMONELLA TYPHIMURIUM, Strain/Indicator: TA102, Metabolic Activation: RAT, LIVER, S-9, AROCLOR 1254, Method: STANDARD PLATE) “inactive; negative”; (Test System: AMES SALMONELLA TYPHIMURIUM, Strain/Indicator: TA1535, Metabolic Activation: HAMSTER, LIVER, S-9, AROCLOR 1254 (10 OR 30%), Method: PREINCUBATION) “inactive; negative”; under setting [12], “inactive; negative”; (Test System: AMES SALMONELLA TYPHIMURIUM, Strain/Indicator: TA1535, Metabolic Activation: RAT, LIVER, S-9, AROCLOR 1254 (10 OR 30%), Method: PREINCUBATION) “inactive; negative”; (Test System: MOUSE LYMPHOMA, Strain/Indicator: L5178Y (TK+/TK-), Metabolic Activation: NONE, Method: SUSPENSION/PLATE) “active; positive”; (Test System: MOUSE LYMPHOMA, Strain/Indicator: L5178Y (TK+/TK-), Metabolic Activation: RAT, LIVER, S-9, AROCLOR 1254, Method: SUSPENSION/PLATE) “active; positive”.
